Converted amounts (≈) assume the structure as drawn.
Columns and labels:
HGC-27 cells = assay: Antitumor action: growth inhibition, methylene blue staining; format: cell-based; details: Homo sapiens, HGC-27, 48 h, read-out: 50% growth inhibitory concentration
Procedure: (§1) Solutions in each well were serially diluted with a fresh preparation of the same RPMI1640 medium (pH 7.2) as used in the above. […] Each cell suspension was distributed to a microplate in a volume of 50 μl/well and incubated at 37° C. for 48 hours in a 5 v/v % CO2 incubator. To each microplate, a 25 v/v % aqueous glutaraldehyde solution was added in a volume of 20 μl/well, and the microplate was allowed to stand for 15 min to fix the cells. Then, the cells adhered to the wells were washed with water, admixed with a 0.05 w/v % aqueous methylene blue solution in a volume of 100 μl/well, and further allowed to stand for 15 min to stain the cells. Thereafter, an excessive amount of the staining solution was removed from the wells by washing with water, and the cells were dried, admixed with 300 μl/well of 0.33 N hydrochloric acid, stirred sufficiently, and measured for absorption at a wavelength of 620 nm. In parallel, as a control, a system free of a test sample was provided and treated similarly as in the test samples. […]

HL-60 cells = assay: as above; format: cell-based; details: Homo sapiens, HL-60, 48 h, read-out: 50% growth inhibitory concentration
Procedure: as §1

HLC-1 cells = assay: as above; format: cell-based; details: Homo sapiens, 48 h, read-out: 50% growth inhibitory concentration
Procedure: as §1

[1] = Water-solubility (dissolving in refined water for the NBT test); format: physicochemical; details: NBT evaluation impossible
Procedure: Then the formed formazan was quantified on spectro-chemical analysis. Either of the present physiologically active extracts was dissolved in a refined water to give an appropriate concentration, and the solutions were used for test samples. As a control it was provided by replacing the test samples with a refined water. The 50% inhibitory activity for the formation of formazan in the control was defined as a one unit activity of radical-entrapping action. Based of the definition, the radical-entrapping activity of one gram of each test sample was determined.
Particularly, the radical-entrapping action of the physiologically active substance of Experiment 1 and Compounds 5 and 6 of Experiment 2 was remarkable.

**Q.** Which IC50 (HGC-27 cells) does the source give for O=C1c2ccccc2-n2c1nc1ccccc1c2=O [Compound 1, 6,12-dihydro-6,12-dioxoindolo[2,1-b]quinazoline] here?
**A.** Its IC50 is 1.5 µg/mL (≈ 6.04 µM).

**Q.** What about the IC50 (HL-60 cells) of the same compound?
**A.** Its IC50 is 4.2 µg/mL (≈ 16.9 µM).

**Q.** And the IC50 (HLC-1 cells)?
**A.** The IC50 was 2.2 µg/mL (≈ 8.86 µM).

**Q.** And the Water-solubility [1]?
**A.** Its Water-solubility is “insufficient water-solubility”.
